Measured values reported in patent publication US20160333043A1, “E-Selectin Antagonists Modified By Macrocycle Formation to the Galactose” (GLYCOMIMETICS, INC., priority 2014, published 2016).
pIC50: −log10 of the molar value. Read-outs that look alike come from different tables or passages of the source.

Legend:
[1] = biological target: T1, E-selectin (Homo sapiens, UniProt P16581); experiment: E-selectin activity competitive binding assay (sLe^a polyacrylamide / streptavidin-HRP conjugate); conditions: immobilized E-selectin/Ig chimera; concentration required to inhibit sLe^a binding by 50%; absorbance 450 nm
T1 construct: fused on or other part: Immunoglobulin (Ig) part fused on as a handle for immobilising and dimerising
T1 sequence (P16581 22-175 limits assumed): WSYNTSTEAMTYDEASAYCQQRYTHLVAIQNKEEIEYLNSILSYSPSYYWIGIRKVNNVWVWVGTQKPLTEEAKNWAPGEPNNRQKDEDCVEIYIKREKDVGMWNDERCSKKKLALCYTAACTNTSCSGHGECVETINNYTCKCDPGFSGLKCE
Excerpt: An inhibition assay may be used to screen for antagonists of E-selectin. For example, an assay may be performed to characterize the capability of a compound described herein to inhibit (i.e., reduce, block, decrease, or prevent in a statistically or biologically significant manner) interaction of E-selectin with sLe^a or sLe^x. The inhibition assay may be a competitive binding assay, which allows the determination of IC50 values. By way of example, E-selectin/Ig chimera may be immobilized onto a matrix (e.g., a multi-well plate, which may be made from a polymer, such as polystyrene; a test tube, and the like); a composition may be added to reduce nonspecific binding (e.g., a composition comprising non-fat dried milk or bovine serum albumin or other blocking buffer routinely used by a person skilled in the art); the immobilized E-selectin may be contacted with the candidate compound in the presence of sLe^a comprising a reporter group under conditions and for a time sufficient to permit sLe^a to bind to the immobilized E-selectin; the immobilized E-selectin may be washed; and the amount of sLe^a bound to immobilized E-selectin may be detected. Variations of such steps can be readily and routinely accomplished by a person of ordinary skill in the art.
The inhibition assay to screen and characterize glycomimetic antagonists of E-selectin is a competitive binding assay, from which IC50 values may be determined. E-selectin/Ig chimera was immobilized in 96 well microtiter plates by incubation at 37° C. for 2 hours. To reduce nonspecific binding, bovine serum albumin was added to each well and incubated at room temperature for 2 hours. The plate was washed and serial dilutions of the test compounds were added to the wells in the presence of conjugates of biotinylated, sLe^a polyacrylamide with streptavidin/horseradish peroxidase and incubated for 2 hours at room temperature.
To determine the amount of sLe^a bound to immobilized E-selectin after washing, the peroxidase substrate, 3,3′,5,5′ tetramethylbenzidine (TMB) was added. After 3 minutes, the enzyme reaction was stopped by the addition of H3PO4, and the absorbance of light at a wavelength of 450 nm was determined.

[2] = rcm bond, Grubbs 2nd generation catalyst, 25.0 °C

Compound | pIC50 [1] | further results
CC1O[C@@H](OC2[C@H](C)CCC[C@H]2O[C@@H]2OC(CO)[C@H](O)C3O[C@@H](C(=O)O)CCCCOC32)[C@@H](O)C(O)[C@@H]1O (stereo partly shown) [Compound 18a] | 4.82 | –
CC1O[C@@H](OC2[C@H](C)CCC[C@H]2O[C@@H]2OC(CO)[C@H](O)C3O[C@@H](C(=O)O)CCCOC32)[C@@H](O)C(O)[C@@H]1O (stereo partly shown) [Compound 25] | 4.80 | –
COC(=O)C1CC=CCO[C@H]2[C@H](O[C@@H]3CCC[C@H](C)[C@H]3O[C@@H]3O[C@@H](C)[C@@H](OCc4ccccc4)[C@@H](OCc4ccccc4)[C@@H]3OCc3ccccc3)O[C@H](COCc3ccccc3)[C@H](O)[C@@H]2O1 (stereo partly shown) | – | ring closure, yield of all isomers ([2]; from C=CCO[C@H]1[C@H](O[C@@H]2CCC[C@H](C)[C@H]2O[C@@H]2O[C@@H](C)[C@@H](OCc3ccccc3)[C@@H](OCc3ccccc3)[C@@H]2OCc2ccccc2)O[C@H](COCc2ccccc2)[C@H](O)[C@@H]1OC(CC=C)C(=O)OC, DCM, 5.25 mM, 2.0 h): 86%
CC[C@H]1CCC[C@@H](O[C@@H]2O[C@@H]3COC(c4ccccc4)O[C@@H]3[C@@H]3O[C@@H](C(=O)OCc4ccccc4)CC=CCO[C@@H]23)[C@@H]1O[C@@H]1O[C@@H](C)[C@@H](OCc2ccccc2)[C@@H](OCc2ccccc2)[C@@H]1OCc1ccccc1 (stereo partly shown) | – | ring closure, yield of all isomers ([2]; from C=CCO[C@H]1[C@H](O[C@@H]2CCC[C@H](CC)[C@H]2O[C@@H]2O[C@@H](C)[C@@H](OCc3ccccc3)[C@@H](OCc3ccccc3)[C@@H]2OCc2ccccc2)O[C@@H]2COC(c3ccccc3)O[C@@H]2[C@@H]1O[C@H](CC=C)C(=O)OCc1ccccc1, 16.0 h): 66%
COC(=O)C1CC=CCCO[C@H]2[C@H](O[C@@H]3CCC[C@H](C)[C@H]3O[C@@H]3O[C@@H](C)[C@@H](OCc4ccccc4)[C@@H](OCc4ccccc4)[C@@H]3OCc3ccccc3)O[C@H](COCc3ccccc3)[C@H](O)[C@@H]2O1 (stereo partly shown) | – | ring closure, yield of all isomers ([2]; from C=CCCO[C@H]1[C@H](O[C@@H]2CCC[C@H](C)[C@H]2O[C@@H]2O[C@@H](C)[C@@H](OCc3ccccc3)[C@@H](OCc3ccccc3)[C@@H]2OCc2ccccc2)O[C@H](COCc2ccccc2)[C@H](O)[C@@H]1OC(CC=C)C(=O)OC, DCM, 2.0 h): 82.5%

Continued, in another order:

pIC50 [1] | Compound | further results
5.42 | CC[C@@H]1CCC[C@@H](O[C@@H]2OC(CO)[C@H](O)C3O[C@@H](C(=O)O)CCCOC32)C1O[C@@H]1OC(C)[C@@H](O)C(O)[C@@H]1O (stereo partly shown) [Compound 47] | –
5.14 | CC[C@@H]1CCC[C@@H](O[C@@H]2OC(CO)[C@H](O)C3O[C@@H](C(=O)O)CCCCOC32)C1O[C@@H]1OC(C)[C@@H](O)C(O)[C@@H]1O (stereo partly shown) [Compound 39] | –
